The target of assay [1] is T1, HSA–monomeric Aβ40 (recombinant human Aβ40) (Homo sapiens, UniProt P02768). In words: SPR of HSA interaction with immobilized monomeric Aβ40, without/with SRO or TRP. The note with it: SPR 25 °C; for Kd: KD (apparent, HSA–Aβ40), KD × 10^7, i.e. value × 10^−7 M; for Kd / ka (effective, HSA–Aβ40) / kd (effective, HSA–Aβ40): pH 7.4, HSA 5–60 µM, mean ± SD; for ka (effective, HSA–Aβ40): ka × 10^−3, i.e. value × 10^3 M^−1s^−1; for kd (effective, HSA–Aβ40): kd × 10^4, i.e. value × 10^−4 s^−1. The protocol: (§1) The recombinant human Aβ40 or Aβ42 sample was immobilized on the surface of the SPR sensor chip by amine coupling, followed by removal from the surface of the non-covalently bound Aβ molecules by a 2% SDS water solution [12]. […] (5–60 µM) was used as an analyte.
(§2) Aβ40/Aβ42 was immobilized on the sensor chip’s surface by amine coupling.
(§3) Recombinant human Aβ40/Aβ42 samples were pretreated for SPR measurements mainly as described in [46]. The freeze-dried Aβ sample was dissolved in neat TFA at a concentration of 0.5–1 mg/mL. The solution was sonicated for 30 s. TFA was evaporated using Eppendorf Concentrator plus. The dried Aβ sample was dissolved in DMSO at a concentration of 2 mg/mL, and stored at −20 °C.
(§4) SPR measurements were performed at 25 °C using a Bio-Rad ProteOn™ XPR36 instrument mainly as previously described. Ligand (57 μg/mL recombinant human Aβ40/Aβ42 in 10 mM sodium acetate, pH 4.5 buffer) was immobilized on a ProteOn GLH sensor chip surface (up to 7000–9000 RUs) by amine coupling. The remaining activated amine groups on the chip surface were blocked by 1 M ethanolamine solution. The non-covalently bound Aβ40/Aβ42 molecules were washed from the chip surface with 2% SDS water solution until stabilization of the signal. […] The sensor chip surface was regenerated by passage of 10 mM EDTA pH 7.9 solution containing 2% SDS. […] The double-referenced SPR sensograms were globally fitted according to the one-site binding model using Bio-Rad ProteOn Manager™ v.3.1 software.

In assay [2] the target is T2, HSA–monomeric Aβ42 (recombinant human Aβ42) (Homo sapiens, UniProt P02768). Kind of assay: SPR of HSA interaction with immobilized monomeric Aβ42, without/with SRO or TRP. The note with it: SPR 25 °C; for Kd: KD (apparent, HSA–Aβ42), KD × 10^7, i.e. value × 10^−7 M; for Kd / ka (effective, HSA–Aβ42) / kd (effective, HSA–Aβ42): pH 7.4, HSA 5–60 µM, mean ± SD; for ka (effective, HSA–Aβ42): ka × 10^−3, i.e. value × 10^3 M^−1s^−1; for kd (effective, HSA–Aβ42): kd × 10^4, i.e. value × 10^−4 s^−1. The protocol:
as §1, §2, §3, §4

The subject of assay [3] is HSA–monomeric Aβ. Kind of assay: SPR of HSA interaction with monomeric Aβ (isoform not given). Type of assay: binding, human. Conditions: general statement; SPR.
Assay [4] concerns HSA. In words: Glutaraldehyde crosslinking of HSA with SDS-PAGE. Details: species or system human. Conditions: 1 mM ligand, HSA 36 µM, glutaraldehyde crosslinking, 37 °C; overall statements also rest on DLS.
In assay [5] the test system is HSA. Conditions: cited from earlier work.
Assay [6] has as its system Aβ42. Further details: method as in PMID 29131485. Conditions: cited from earlier work.
Assay [7] has as its target T1, HSA–monomeric Aβ40 (recombinant human Aβ40). Further details: method as in PMID 30685090. The note with it: cited from earlier work.
Assay [8] addresses T2, HSA–monomeric Aβ42 (recombinant human Aβ42). Details: method as in PMID 30685090. Conditions: cited from earlier work.
Assay [9] has as its system HSA–monomeric Aβ. Conditions: cited from earlier work. The text has this:
An alternative, less invasive approach to the lowering of the free Aβ level in the brain is a pharmacologically guided shift in the equilibrium between HSA and Aβ towards their complex. The latter possibility was recently confirmed by arachidonic/linoleic-aci ...

For assay [10], the system named is HSA-induced suppression of Aβ fibrillation. Details: method as in 2 sources, ref 5 = [5]; PMID 10347147; doi:10.1074/jbc.274.23.15990; 5. Bohrmann B. Tjernberg L. Kuner P. Poli S. Levet-Trafit B. Naslund J. Richards G. Huber W. Dobeli H. Nordstedt C. Endogenous proteins controlling amyloid beta-peptide polymerization. Possible implic ||| ref 14 = [14]; PMID 29409811; doi:10.1016/j.jmb.2018.01.008; 14. Bode D.C. Stanyon H.F. Hirani T. Baker M.D. Nield J. Viles J.H. Serum albumin’s protective inhibition of amyloid-β fiber formation is suppressed by cholesterol, fatty acids and warfarin J. Mol. Bi. Conditions: cited from earlier work.

“Also recorded” adds a separate entry of the source.

T1 sequence (P05067 672-711): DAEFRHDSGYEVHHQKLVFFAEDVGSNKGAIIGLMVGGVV
T1 sequence (P02768 25-609): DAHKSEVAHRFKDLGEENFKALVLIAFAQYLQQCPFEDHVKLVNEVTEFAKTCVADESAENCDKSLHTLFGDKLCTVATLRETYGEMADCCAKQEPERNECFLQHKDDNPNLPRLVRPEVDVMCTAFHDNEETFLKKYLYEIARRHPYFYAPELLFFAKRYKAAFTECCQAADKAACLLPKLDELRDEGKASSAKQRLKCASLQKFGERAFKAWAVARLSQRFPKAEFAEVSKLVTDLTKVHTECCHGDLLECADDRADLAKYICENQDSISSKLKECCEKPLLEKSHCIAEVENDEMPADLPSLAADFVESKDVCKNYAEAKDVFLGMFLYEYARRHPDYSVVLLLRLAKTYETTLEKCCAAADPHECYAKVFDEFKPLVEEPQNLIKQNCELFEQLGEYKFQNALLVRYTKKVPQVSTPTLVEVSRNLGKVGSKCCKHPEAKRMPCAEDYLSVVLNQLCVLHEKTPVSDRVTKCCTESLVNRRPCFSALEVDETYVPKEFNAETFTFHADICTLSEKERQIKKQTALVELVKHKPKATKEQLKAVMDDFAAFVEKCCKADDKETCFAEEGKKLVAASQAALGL
T2 sequence (P05067 672-713): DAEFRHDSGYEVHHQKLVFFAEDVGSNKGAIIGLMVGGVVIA
T2 sequence (P02768 25-609): as the sequence (P02768 25-609) above

Consider `N[C@@H](Cc1c[nH]c2ccccc12)C(=O)O` [TRP, L-tryptophan], for which, in [1] (1 mM ligand), the “effect on HSA's apparent affinity to Aβ40” value was “did not affect HSA’s apparent affinity”. Also, the Kd in assay [1] (10 µM HSA ligand) amounted to 80 ± 40 nM; in assay [1] (1 mM HSA ligand), 70 ± 40 nM; in assay [2] (10 µM HSA ligand) it was 60 ± 40 nM; in [2] (1 mM HSA ligand) it was 60 ± 30 nM. For the same molecule, the “ka (effective, HSA–Aβ40)” value in [1] (10 µM HSA ligand) is 0.7 ± 0.2 × 10^−3, M^−1s^−1; in assay [1] (100 µM HSA ligand), 0.47 ± 0.15 × 10^−3, M^−1s^−1; in [1] (1 mM HSA ligand) it was 0.6 ± 0.2 × 10^−3, M^−1s^−1. Also, the “kd (effective, HSA–Aβ40)” value in assay [1] (10 µM HSA ligand) is 0.49 ± 0.12 × 10^4, s^−1; in [1] (100 µM HSA ligand), 0.53 ± 0.17 × 10^4, s^−1; in assay [1] (1 mM HSA ligand), 0.4 ± 0.2 × 10^4, s^−1. Besides, the “effect on kinetics of HSA–Aβ42 interaction” value in assay [2] (1 mM TRP) is “slowdown of the association and dissociation processes”. In [2] (1 mM ligand), the “effect on HSA's apparent affinity to Aβ42” value is listed as “did not affect HSA’s apparent affinity”. Besides, the “ka (effective, HSA–Aβ42)” value in assay [2] (10 µM HSA ligand) is given as 0.8 ± 0.4 × 10^−3, M^−1s^−1; in [2] (100 µM HSA ligand), 0.5 ± 0.3 × 10^−3, M^−1s^−1; in assay [2] (1 mM HSA ligand), 0.29 ± 0.07 × 10^−3, M^−1s^−1. The “kd (effective, HSA–Aβ42)” value is 0.4 ± 0.2 × 10^4, s^−1 in assay [2] (10 µM HSA ligand) and 0.7 ± 0.6 × 10^4, s^−1 in [2] (100 µM HSA ligand). In addition, in assay [3], the “effect on HSA's affinity to monomeric Aβ / activation of HSA–Aβ interaction” value is “does not affect HSA’s affinity to monomeric Aβ; also recorded: did not affect HSA’s effective affinity for Aβ; also recorded: inactive”. The “effect on kinetics of HSA–Aβ interaction” value in assay [3] is “slowdown of the association and dissociation processes; also recorded: slowed their association and dissociation”. For the same molecule, in assay [4], the “effect on quaternary structure of HSA” value is recorded as “did not affect the quaternary structure of HSA”. Further, the “equilibrium association constant of TRP with HSA” value in assay [5] was 27000 M⁻¹. For the same molecule, the “inhibition of Aβ42 fibrillation compared with SRO” value in assay [6] is listed as “markedly less effective; also recorded: much less efficient inhibition of Aβ42 fibrillation”.
In the case of `CCCCC/C=C\C/C=C\C/C=C\C/C=C\CCCC(=O)O` [arachidonic acid], the “fold decrease in KD of HSA–monomeric Aβ40” value in [7] is on record as 3 fold. Further, in assay [8], the “fold decrease in KD of HSA–monomeric Aβ42” value is recorded as 3 fold. For the same molecule, the “effect on HSA affinity to Aβ” value in [9] was “enhancement of HSA affinity to Aβ”.
In the case of `CC(C)CCC[C@@H](C)[C@H]1CC[C@H]2[C@@H]3CC=C4C[C@@H](O)CC[C@]4(C)[C@H]3CC[C@]12C` [cholesterol], in assay [10], the “effect on HSA-induced suppression of Aβ fibrillation” value was “prevent HSA-induced suppression of Aβ fibrillation”.
Regarding `CC(=O)CC(c1ccccc1)c1c(O)c2ccccc2oc1=O` (stereo not shown) [warfarin], the “effect on HSA-induced suppression of Aβ fibrillation” value in [10] was “prevent HSA-induced suppression of Aβ fibrillation”.

The record behind these values is PMC8199245, “Serotonin Promotes Serum Albumin Interaction with the Monomeric Amyloid β Peptide” (International Journal of Molecular Sciences, 2021).
